Data reported in patent publication US20090305225A1, “Inhibition of Creatine Uptake to Promote Weight Loss” (priority 2005, published 2009).

Assays:
[1] = test system: 11G2L cDNA (creatine transporter mRNA); assay: Differential display of hypothalamic mRNA (band 11G2L); format: in vivo, rat; details: icv CoPP 0.4 umol/kg, 48 hours, absent in vehicle fed and fasted rats
Method: RNA Extraction from Rat Hypothalamus. Adult male Sprague-Dawley rats were randomly separated into three groups. Group 1 (control) was injected icv with saline and fed ad lib. Group 2 (fasted) was injected icv with saline and allowed ad lib access to water only; Group 3 (CoPP) was injected icv with CoPP 0.4 umol/kg body weight and fed ad lib. After 24 and 48 hours, weights were measured. Only those rats with robust weight loss of at least 10% of initial body weight 48 hours after treatment were chosen for the CoPP group. Eleven rats from each group were then killed by decapitation, using procedures outlined in the Animal Welfare Act and as approved by the University of Vermont, Office of Animal Care Management. The hypothalamic block of each rat was dissected from the rat's brain as described and immediately homogenized with RNase-free homogenizer. Total RNA was extracted using an Ultraspec-II RNA kit (Biotecx Laboratories, Inc., Houston, Tex.) following the manufacturer's procedures and stored at −80 degrees C. until analysis.
Differential Display-Reverse Transcription-Polymerase Chain Reaction (DD-RT-P). The RNAimage mRNA Differential Display system was purchased from GenHunter Corporation (Nashville, Tenn.). Three anchored H-T11M (where M refer to G, A, or C) primers and 12 sets of arbitrary primers (HAP 1 to 12) were chosen to use in this particular experiment. […]

[2] = test system: hypothalamic creatine and phosphocreatine; assay: Creatine assay (HPLC) of hypothalamic blocks; format: in vivo, rat; details: 48 hours after 0.4 um/kg
Method: Hypothalamic blocks were rapidly dissected from animals treated icv with vehicle or CoPP at the indicated doses and snap-frozen in liquid nitrogen. They were stored at -80 degrees C. until they were crushed into a powder under liquid nitrogen and homogenized in 0.5 M PCA. Samples were then centrifuged at 4 degrees C. for 10 minutes at 15,000×g and the resulting supernatant neutralized with 1 M KOH. HPLC analysis was performed essentially as described. Samples were injected onto a Partisil 10 SAX analytical column which was eluted […] starting with Buffer A (0.01M H2PO4) and changing to Buffer B ([…]). The column was run on a Waters HPLC equipped with a Waters 996 Photodiode Array Detector and a Waters 717+ Auto Sampler. Both creatine and phosphocreatine standards were run with each sample set. Results are expressed as nanomoles per mg wet weight.

C=Cc1c(C)c2cc3[nH]c(cc4nc(cc5nc(cc1[nH]2)C(C)=C5CCC(=O)[O-])C(CCC(=O)[O-])=C4C)c(C)c3C=C.[Co+2] [CoPP, Cobaltic protoporphyrin IX]
cDNA band 11G2L in differential display [1]: present | decrease in hypothalamic phosphocreatine concentrations ([2]; failed to meet statistical significance): about 40% | decrease in hypothalamic creatine concentrations ([2]; versus vehicle-treated or fasted rats, p=0.008): about 20%
